This experiment concerns the target T1, bovine liver catalase (BLC) (Bos taurus, UniProt P00432).
T1 sequence (P00432 2-527): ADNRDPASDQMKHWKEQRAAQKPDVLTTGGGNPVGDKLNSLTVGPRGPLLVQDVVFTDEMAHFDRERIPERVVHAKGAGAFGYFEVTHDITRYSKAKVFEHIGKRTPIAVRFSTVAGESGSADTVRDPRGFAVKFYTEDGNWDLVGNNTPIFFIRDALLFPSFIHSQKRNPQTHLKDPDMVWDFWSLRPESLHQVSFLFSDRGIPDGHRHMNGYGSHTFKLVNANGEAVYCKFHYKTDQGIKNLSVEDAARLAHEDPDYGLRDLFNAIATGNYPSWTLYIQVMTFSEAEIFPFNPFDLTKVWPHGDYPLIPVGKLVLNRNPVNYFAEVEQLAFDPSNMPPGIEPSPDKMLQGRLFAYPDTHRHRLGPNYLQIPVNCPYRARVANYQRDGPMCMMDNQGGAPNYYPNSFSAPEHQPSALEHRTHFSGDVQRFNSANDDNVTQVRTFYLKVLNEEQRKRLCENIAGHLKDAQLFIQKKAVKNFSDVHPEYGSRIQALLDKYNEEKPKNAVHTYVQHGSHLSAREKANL
The experiment can be described thus: UV assay of H2O2 decomposition at […] nm with Lineweaver-Burk analysis. The format is biochemical.

By Ki is commonly meant the equilibrium dissociation constant of an inhibitor or competing ligand from its target. Low readings indicate tighter binding, high ones weaker binding. As for `O=c1c(O)c(-c2ccc(O)c(O)c2)oc2cc(O)cc(O)c12` [QUE, 3,5,7,3ʹ,4ʹ-pentahydroxyflavone], the affinity corresponds to a Ki of 46 µM. In other words, the double-digit micromolar range.

(Values after paper PMC5684506 (BioImpacts : BI, 2017).)
